# Results taken from patent US9944646B2, “Bicyclic azaheterocyclobenzylamines as PI3K inhibitors” (Incyte Corporation, priority 2012, dated 2018).
# pIC50: −log10 of the molar value. Structures can show the parent of a compound that is named as a salt.
# Molecular target: PI3Kδ (p110δ/p85α) (Homo sapiens (Human), UniProt O00329)
# Assay: PI3Kδ Scintillation Proximity Assay (Example A3)
# Assay type: biochemical
# Source text: Example A3: PI3Kδ Scintillation Proximity Assay
# [γ-^33P]ATP (10 mCi/mL) was purchased from Perkin-Elmer (Waltham, Mass.). Lipid kinase substrate, D-myo-Phosphatidylinositol 4,5-bisphosphate (PtdIns(4,5)P2)D (+)-sn-1,2-di-O-octanoylglyceryl, 3-O-phospho linked (PIP2), CAS 204858-53-7, was purchased from Echelon Biosciences (Salt Lake City, Utah). PI3Kδ (p110δ/p85α) was purchased from Millipore (Bedford, Mass.). ATP, MgCl2, DTT, EDTA, MOPS and CHAPS were purchased from Sigma-Aldrich (St. Louis, Mo.). Wheat Germ Agglutinin (WGA) YSi SPA Scintillation Beads was purchased from GE healthcare life sciences (Piscataway, N.J.).
# The kinase reaction was conducted in polystyrene 384-well matrix white plate from Thermo Fisher Scientific in a final volume of 25 μL. Inhibitors were first diluted serially in DMSO and added to the plate wells before the addition of other reaction components. The final concentration of DMSO in the assay was 0.5%. The PI3K assays were carried out at room temperature in 20 mM MOPS, pH 6.7, 10 mM MgCl2, 5 mM DTT and CHAPS 0.03%. Reactions were initiated by the addition of ATP, the final reaction mixture consisted of 20 µM PIP2, 20 µM ATP, 0.2 μCi [γ-^33P]ATP, 4 nM PI3Kδ. Reactions were incubated for 210 min and terminated by the addition of 40 μL SPA beads suspended in quench buffer: 150 mM potassium phosphate pH 8.0, 20% glycerol. 25 mM EDTA, 400 µM ATP. The final concentration of SPA beads was 1.0 mg/mL. After the plate sealing, plates were shaken overnight at room temperature and centrifuged at 1800 rpm for 10 minutes, the radioactivity of the product was determined by scintillation counting on Topcount (Perkin-Elmer). IC50 determination was performed by fitting the curve of percent control activity versus the log of the inhibitor concentration using the GraphPad Prism 3.0 software. […] IC50 data for Examples 1-25 is presented in Table 3 for PI3Kδ as determined by the assay of Example A2 or A3 as indicated
# Sequence of PI3Kδ (p110δ/p85α) (O00329 whole entry): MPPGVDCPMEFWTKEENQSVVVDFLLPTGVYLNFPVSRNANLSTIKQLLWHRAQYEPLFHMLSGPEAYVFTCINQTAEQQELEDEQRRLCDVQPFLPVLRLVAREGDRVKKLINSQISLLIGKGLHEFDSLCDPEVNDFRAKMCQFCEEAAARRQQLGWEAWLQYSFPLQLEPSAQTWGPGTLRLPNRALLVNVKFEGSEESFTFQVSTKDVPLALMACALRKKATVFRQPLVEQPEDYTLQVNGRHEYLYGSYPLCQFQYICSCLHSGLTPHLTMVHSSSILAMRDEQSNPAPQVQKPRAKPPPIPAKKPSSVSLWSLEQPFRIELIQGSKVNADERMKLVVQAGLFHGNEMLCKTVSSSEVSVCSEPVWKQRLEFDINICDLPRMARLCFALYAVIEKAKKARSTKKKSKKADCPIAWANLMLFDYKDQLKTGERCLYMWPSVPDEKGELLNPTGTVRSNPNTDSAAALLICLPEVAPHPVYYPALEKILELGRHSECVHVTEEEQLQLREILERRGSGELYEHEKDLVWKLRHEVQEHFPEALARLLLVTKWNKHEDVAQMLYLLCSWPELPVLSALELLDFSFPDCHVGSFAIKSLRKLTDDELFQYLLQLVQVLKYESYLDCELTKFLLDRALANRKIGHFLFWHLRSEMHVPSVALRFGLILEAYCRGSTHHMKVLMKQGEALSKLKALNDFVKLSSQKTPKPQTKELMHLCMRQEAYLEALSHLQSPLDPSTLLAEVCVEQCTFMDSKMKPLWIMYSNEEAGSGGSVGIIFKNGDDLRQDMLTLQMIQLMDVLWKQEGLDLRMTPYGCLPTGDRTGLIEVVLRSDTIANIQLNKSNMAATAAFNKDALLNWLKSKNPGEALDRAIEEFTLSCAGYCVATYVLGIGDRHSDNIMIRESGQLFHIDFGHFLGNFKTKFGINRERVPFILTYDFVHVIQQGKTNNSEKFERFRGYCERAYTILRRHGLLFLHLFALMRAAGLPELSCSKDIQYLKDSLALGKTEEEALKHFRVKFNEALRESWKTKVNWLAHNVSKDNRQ
# Sequence of PI3Kδ (p110δ/p85α) (P27986 whole entry partner): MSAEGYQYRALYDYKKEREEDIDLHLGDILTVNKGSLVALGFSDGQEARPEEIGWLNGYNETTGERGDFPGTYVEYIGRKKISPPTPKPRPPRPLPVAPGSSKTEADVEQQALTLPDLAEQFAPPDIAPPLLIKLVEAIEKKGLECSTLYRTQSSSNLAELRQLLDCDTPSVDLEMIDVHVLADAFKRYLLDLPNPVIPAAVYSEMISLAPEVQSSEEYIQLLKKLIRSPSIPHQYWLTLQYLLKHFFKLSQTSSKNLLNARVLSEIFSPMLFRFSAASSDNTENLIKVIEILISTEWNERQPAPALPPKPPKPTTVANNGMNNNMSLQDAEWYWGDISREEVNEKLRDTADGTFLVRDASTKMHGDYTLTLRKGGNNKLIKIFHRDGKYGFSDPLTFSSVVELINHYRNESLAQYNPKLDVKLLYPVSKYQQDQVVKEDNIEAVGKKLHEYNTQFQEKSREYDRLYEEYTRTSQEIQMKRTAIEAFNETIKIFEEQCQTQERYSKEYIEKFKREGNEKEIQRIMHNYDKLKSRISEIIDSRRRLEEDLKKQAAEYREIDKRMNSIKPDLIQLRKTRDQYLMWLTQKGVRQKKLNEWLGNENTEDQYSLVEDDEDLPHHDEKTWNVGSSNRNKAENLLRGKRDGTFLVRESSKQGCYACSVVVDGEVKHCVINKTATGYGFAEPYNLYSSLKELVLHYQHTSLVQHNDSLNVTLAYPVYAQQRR
row,SMILES,pIC50
1,"Cc1c(Cl)cc(C(C)n2nc(C)c3c(N)ncnc32)c2c1CN(C(=O)OC(C)(C)C)CCO2 (stereo not shown) [Example 1, tert-Butyl 9-[1-(4-amino-3-methyl-1H-pyrazolo[3,4-d]pyrimidin-1-yl)ethyl]-7-chloro-6-methyl-2,3-dihydro-1,4-benzoxazepine-4(5H)-carboxylate]",6.30 to 7.00
2,"Cc1c(Cl)cc(C(C)n2nc(C)c3c(N)ncnc32)c2c1CNCCO2 (stereo not shown) [Example 2, 1-[1-(7-Chloro-6-methyl-2,3,4,5-tetrahydro-1,4-benzoxazepin-9-yl)ethyl]-3-methyl-1H-pyrazolo[3,4-d]pyrimidin-4-amine bis(trifluoroacetate)]",≥ 7.00
3,"Cc1c(Cl)cc(C(C)n2nc(C)c3c(N)ncnc32)c2c1CN(C1CN(C(=O)OC(C)(C)C)C1)CCO2 (stereo not shown) [Example 3, tert-Butyl 3-[9-[1-(4-amino-3-methyl-1H-pyrazolo[3,4-d]pyrimidin-1-yl)ethyl]-7-chloro-6-methyl-2,3-dihydro-1,4-benzoxazepin-4(5H)-yl]azetidine-1-carboxylate]",≥ 7.00
4,"CC(=O)N1CC(N2CCOc3c(C(C)n4nc(C)c5c(N)ncnc54)cc(Cl)c(C)c3C2)C1 (stereo not shown) [Example 4, 1-{1-[4-(1-Acetylazetidin-3-yl)-7-chloro-6-methyl-2,3,4,5-tetrahydro-1,4-benzoxazepin-9-yl]ethyl}-3-methyl-1H-pyrazolo[3,4-d]pyrimidin-4-amine]",≥ 7.00
5,"Cc1c(Cl)cc(C(C)n2nc(C)c3c(N)ncnc32)c2c1CN(C1CCC1)CCO2 (stereo not shown) [Example 5, 1-[1-(7-Chloro-4-cyclobutyl-6-methyl-2,3,4,5-tetrahydro-1,4-benzoxazepin-9-yl)ethyl]-3-methyl-1H-pyrazolo[3,4-d]pyrimidin-4-amine bis(trifluoroacetate)]",≥ 7.00
6,"Cc1c(Cl)cc(C(C)n2nc(C)c3c(N)ncnc32)c2c1CN(C1CCCC1)CCO2 (stereo not shown) [Example 6, 1-[1-(7-Chloro-4-cyclopentyl-6-methyl-2,3,4,5-tetrahydro-1,4-benzoxazepin-9-yl)ethyl]-3-methyl-1H-pyrazolo[3,4-d]pyrimidin-4-amine bis(trifluoroacetate)]",≥ 7.00
7,"Cc1c(Cl)cc(C(C)n2nc(C)c3c(N)ncnc32)c2c1CN(C1CCCCC1)CCO2 (stereo not shown) [Example 7, 1-[1-(7-Chloro-4-cyclohexyl-6-methyl-2,3,4,5-tetrahydro-1,4-benzoxazepin-9-yl)ethyl]-3-methyl-1H-pyrazolo[3,4-d]pyrimidin-4-amine bis(trifluoroacetate)]",≥ 7.00
8,"COC1CCC(N2CCOc3c(C(C)n4nc(C)c5c(N)ncnc54)cc(Cl)c(C)c3C2)CC1 (stereo not shown) [Example 8, 1-{1-[7-Chloro-4-(4-methoxycyclohexyl)-6-methyl-2,3,4,5-tetrahydro-1,4-benzoxazepin-9-yl]ethyl}-3-methyl-1H-pyrazolo[3,4-d]pyrimidin-4-amine bis(trifluoroacetate)]",≥ 7.00
9,"Cc1c(Cl)cc(C(C)n2nc(C)c3c(N)ncnc32)c2c1CN(C)CCO2 (stereo not shown) [Example 9, 1-[1-(7-Chloro-4,6-dimethyl-2,3,4,5-tetrahydro-1,4-benzoxazepin-9-yl)ethyl]-3-methyl-1H-pyrazolo[3,4-d]pyrimidin-4-amine bis(trifluoroacetate)]",≥ 7.00
10,"Cc1c(Cl)cc(C(C)n2nc(C)c3c(N)ncnc32)c2c1CN(C(C)C)CCO2 (stereo not shown) [Example 10, 1-[1-(7-Chloro-4-isopropyl-6-methyl-2,3,4,5-tetrahydro-1,4-benzoxazepin-9-yl)ethyl]-3-methyl-1H-pyrazolo[3,4-d]pyrimidin-4-amine bis(trifluoroacetate)]",≥ 7.00
11,"Cc1c(Cl)cc(C(C)n2nc(C)c3c(N)ncnc32)c2c1CN(CC#N)CCO2 (stereo not shown) [Example 11, [9-[1-(4-Amino-3-methyl-1H-pyrazolo[3,4-d]pyrimidin-1-yl)ethyl]-7-chloro-6-methyl-2,3-dihydro-1,4-benzoxazepin-4(5H)-yl]acetonitrile bis(trifluoroacetate)]",≥ 7.00
12,"Cc1c(Cl)cc(C(C)n2nc(C)c3c(N)ncnc32)c2c1CN(C(=O)CC#N)CCO2 (stereo not shown) [Example 12, 3-[9-[1-(4-Amino-3-methyl-1H-pyrazolo[3,4-d]pyrimidin-1-yl)ethyl]-7-chloro-6-methyl-2,3-dihydro-1,4-benzoxazepin-4(5H)-yl]-3-oxopropanenitrile trifluoroacetate]",≥ 7.00
13,"Cc1c(Cl)cc(C(C)n2nc(C)c3c(N)ncnc32)c2c1CN(S(C)(=O)=O)CCO2 (stereo not shown) [Example 13, 1-{1-[7-Chloro-6-methyl-4-(methylsulfonyl)-2,3,4,5-tetrahydro-1,4-benzoxazepin-9-yl]ethyl}-3-methyl-1H-pyrazolo[3,4-d]pyrimidin-4-amine trifluoroacetate]",≥ 7.00
14,"Cc1c(Cl)cc(C(C)n2nc(C)c3c(N)ncnc32)c2c1CN(S(=O)(=O)c1ccccc1)CCO2 (stereo not shown) [Example 14, 1-{1-[7-Chloro-6-methyl-4-(phenylsulfonyl)-2,3,4,5-tetrahydro-1,4-benzoxazepin-9-yl]ethyl}-3-methyl-1H-pyrazolo[3,4-d]pyrimidin-4-amine trifluoroacetate]",≥ 7.00
15,"Cc1ccccc1NC(=O)N1CCOc2c(C(C)n3nc(C)c4c(N)ncnc43)cc(Cl)c(C)c2C1 (stereo not shown) [Example 15, 9-[1-(4-Amino-3-methyl-1H-pyrazolo[3,4-d]pyrimidin-1-yl)ethyl]-7-chloro-6-methyl-N-(2-methylphenyl)-2,3-dihydro-1,4-benzoxazepine-4(5H)-carboxamide trifluoroacetate]",≥ 7.00
16,"Cc1c(Cl)cc(C(C)n2nc(C)c3c(N)ncnc32)c2c1CN(C(=O)c1ccccc1)CCO2 (stereo not shown) [Example 16, 1-[1-(4-Benzoyl-7-chloro-6-methyl-2,3,4,5-tetrahydro-1,4-benzoxazepin-9-yl)ethyl]-3-methyl-1H-pyrazolo[3,4-d]pyrimidin-4-amine trifluoroacetate]",≥ 7.00

# Molecular target: PI3Kδ (Homo sapiens (Human), UniProt O00329)
# Sequence (O00329 whole entry): as the sequence (O00329 whole entry) above
# Sequence (P27986 whole entry partner): as the sequence (P27986 whole entry partner) above
# Assay: PI3K Enzyme Assay (Example A2), [γ-33P]ATP filter plate
# Assay type: biochemical
# How it was run: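 Recombinant PI3Kδ at 2.9 nM with 50 µM PIP2 in MOPS pH 6.7, MgCl2, DTT, CHAPS, 0.5% DMSO; started with 1000 μM ATP including [γ-33P]ATP, 180 min at room temperature. Phosphorylated product captured on PVDF filter plates and scintillation-counted; IC50 from percent-control activity vs log concentration.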
row,SMILES,pIC50
1,"Cc1nn([C@@H](C)c2cc(Cl)c(F)c3c2O[C@@H](C)CN(C2CN(C[C@H](C)O)C2)C3)c2ncnc(N)c12 [Example 85, (2S)-1-{3-[(2S)-9-[(1S)-1-(4-amino-3-methyl-1H-pyrazolo[3,4-d]pyrimidin-l-yl)ethyl]-7-chloro-6-fluoro-2-methyl-2,3-dihydro-1,4-benzoxazepin-4(5H)-yl]azetidin-1-yl}propan-2-ol]",≥ 7.00
2,"Cc1nn([C@@H](C)c2cc(Cl)c(F)c3c2O[C@@H](C)CN(C2CN(C[C@@H](C)O)C2)C3)c2ncnc(N)c12 [Example 86, (2R)-1-{3-[(2S)-9-[(1S)-1-(4-amino-3-methyl-1H-pyrazolo[3,4-d]pyrimidin-1-yl)ethyl]-7-chloro-6-fluoro-2-methyl-2,3-dihydro-1,4-benzoxazepin-4(5H)-yl]azetidin-1-yl}propan-2-ol]",≥ 7.00
3,"CCC(=O)N1CC(N2CCOc3c(C(C)n4nc(C)c5c(N)ncnc54)cc(Cl)c(C#N)c3C2)C1 (stereo not shown) [Example 89, 9-[1-(4-amino-3-methyl-1H-pyrazolo[3,4-d]pyrimidin-1-yl)ethyl]-7-chloro-4-(1-propionylazetidin-3-yl)-2,3,4,5-tetrahydro-1,4-benzoxazepine-6-carbonitrile]",≥ 7.00
4,"Cc1nn(C(C)c2cc(Cl)c(C#N)c3c2OCCN(C2CN(S(C)(=O)=O)C2)C3)c2ncnc(N)c12 (stereo not shown) [Example 90, 9-[1-(4-amino-3-methyl-1H-pyrazolo[3,4-d]pyrimidin-1-yl)ethyl]-7-chloro-4-[1-(methylsulfonyl)azetidin-3-yl]-2,3,4,5-tetrahydro-1,4-benzoxazepine-6-carbonitrile]",≥ 7.00
5,"Cc1nn(C(C)c2cc(Cl)c(C#N)c3c2OCCN(C2CN(C(=O)NC(C)C)C2)C3)c2ncnc(N)c12 (stereo not shown) [Example 91, 3-[9-[1-(4-amino-3-methyl-1H-pyrazolo[3,4-d]pyrimidin-1-yl)ethyl]-7-chloro-6-cyano-2,3-dihydro-1,4-benzoxazepin-4(5H)-yl]-N-isopropylazetidine-1-carboxamide]",≥ 7.00
6,"CCOC(=O)N1CC(N2CCOc3c(C(C)n4nc(C)c5c(N)ncnc54)cc(Cl)c(C#N)c3C2)C1 (stereo not shown) [Example 92, ethyl 3-[9-[1-(4-amino-3-methyl-1H-pyrazolo[3,4-d]pyrimidin-1-yl)ethyl]-7-chloro-6-cyano-2,3-dihydro-1,4-benzoxazepin-4(5H)-yl]azetidine-1-carboxylate]",≥ 7.00
